Data reported in US20230338391A1, “TREATMENT FOR DEPRESSION” (TAKEDA PHARMACEUTICAL COMPANY LIMITED, priority 2020, published 2023).
Where two headings read alike, the source gives them in different places.

Legend:
[1] = 13-week NHP GLP toxicity study: clinical signs, EEG/EMG telemetry, pathology; type: in vivo, Monkey (Macaca fascicularis); conditions: cynomolgus monkey, in vivo, oral gavage once daily, 13 weeks, read-out: no-observed-adverse-effect level (NOAEL)
Protocol: (§1) The appropriate volume of reverse osmosis water was added into a suitable sized container and heated between 70° C. and 90° C. An appropriate amount of MC (METOLOSE SM-100, Shin-Etsu Chemical Co Ltd) was weighed and transferred (while stirring) to the container with heated reverse osmosis water. The solution was cooled down until a clear solution was obtained (an ice bath was used). The solution was stored refrigerated (set to 2-8° C.) until used. Unused reference item/vehicle was discarded when not needed anymore. To make a 0.2 w/v % suspension of COMPOUND A, an appropriate amount of the test item was weighed. A small volume of vehicle was added to slowly wet the test item. The appropriate volume of vehicle was added to reach the final volume and the formulation was homogenized using a homogenizer until a uniform suspension was achieved and stirred for 30 to 59 minutes. The 0.2 w/v % suspension was then diluted with the 0.5 w/v % MC in reverse osmosis water solution to make 0.12, 0.06 and 0.006 w/v % suspensions. However, on Oct. 1, 2015, the 1.2 mg/mL formulation was prepared by dissolving the appropriate amount of COMPOUND A in the vehicle, instead of diluting the 2 mg/mL formulation to reach the appropriate concentration. This deviation had no impact on the study since the appropriate concentration was prepared.
(§2) After suitable acclimation to the dosing procedure, the reference item (0.5% methylcellulose (MC) in reverse osmosis water) was administered once by oral gavage during Phase 1 of the study. The objective of Phase 1 was to confirm the EEG morphologies in all animals before and after dosing procedures. The traces generated during Phase 1 were used for interpretation of Phase 2 data. Beginning 1 day later, the reference item or COMPOUND A was administered once daily by oral gavage for 90 days during Phase 2 as shown in Table 7.
(§3) Clinical signs (ill health, behavioral changes, etc.) were recorded on surviving animals twice daily during all phases of study and monitored continuously for at least 16 hours after the 1st, 3rd, 7th, 14th and 28th dose administration in Phase 2, using digital cameras (to minimize stress for the animals) or using direct observation when needed or during dose administration. Additional clinical observations were performed when deemed necessary.
(§4) EEGs and EMGs were obtained from the animals using telemetry transmitter leads inserted subcutaneously using bipolar derivations (EMG, C4-O2 and Cz-Oz).
(§5) EEG and EMG monitoring was recorded continuously (except during study designated procedures or other procedures such as data backup) from at least 72 hours prior to the first dose of Phase 1 to at least 24 hours after the 28th dose of Phase 2. EEG and EMG monitoring was also recorded continuously (except during study designated procedures or other procedures such as data backup) for a period of at least 36 hours (from at least 12 hours prior to dosing until at least 24 hours post-dosing) once in the 8th week of dosing and once towards the end of the dosing period (13th week of dosing) in Phase 2.
(§6) Using the NeuroScore software (Data Science International), EEGs were analyzed from at least 24 hours prior to the first dose of Phase 1 to at least 24 hours after the 28th dose in Phase 2, and for a period of at least 36 hours (from at least 12 hours prior to dosing until at least 24 hours post-dosing) once in the 8th week of dosing and once towards the end of the dosing period (13th week of dosing) in Phase 2. […] EMGs were used to aid in the interpretation of the EEG data.
(§7) EEGs were reviewed by the Neurologist at the following timepoints: 1-1.5, 2.5-5.5, and 7-7.5 hours following the 1st, 3rd, 7th, 14th and 28th dose administration in Phase 2. The observance of abnormal behaviors/convulsions in individual animals by laboratory personnel also triggered an EEG review for approximately the same time period during which the abnormal behavior was witnessed. […]

[2] = tested on: cynomolgus monkeys; assay: as above; type: in vivo, Monkey (Macaca fascicularis)
Protocol: as §1, §2, §3, §4, §5, §6, §7

CC1=CN2CCS(=O)(=O)N=C2C(c2ccc(OC3CCCCC3)cc2)=N1 [COMPOUND A, 9-[4-(Cyclohexyloxy)phenyl]-7-methyl-3,4-dihydropyrazino[2,1-c][1,2,4]thiadiazine 2,2-dioxide]
NOAEL at 13 weeks ([1]; female, females): 3 mg/kg/day | NOAEL at 13 weeks ([1]; male, males): 10 mg/kg/day | qEEG total power ([2]; 0.3 and 3 mg/kg/day, after 2nd and 27th dose): associated with an increase in total EEG power | clinical signs and EEG ([2]; 0.3 or 3.0 mg/kg/day, males or females): no adverse clinical signs or abnormal EEG changes | clinical signs ([2]; females, 6.0 mg/kg/day): myoclonic jerks, decreased activity, weakness, and uncoordination were observed | clinical signs ([2]; females, 10.0 mg/kg/day): salivation, excessive licking, decreased activity, weakness, lying on cage floor, nystagmus, uncoordination, muscle twitches and myoclonic jerks were observed | generalized seizures (EEG) ([2]; females, 10.0 mg/kg/day): Self-limiting generalized seizures, confirmed by EEG, were observed in two female monkeys | clinical signs ([2]; males, 10 mg/kg/day): decreased activity, tremors and circling were observed at 10 mg/kg/day but were not considered adverse
